Measured values as given in article PMC11855144, “Role of Human DNA Ligases in Mediating Pharmacological Activities of Flavonoids” (International Journal of Molecular Sciences, 2025).
Values after ≈ are worked out from the molar mass of the structure shown.

Key:
[1] = biological target: human DNA ligase I (Homo sapiens, UniProt P18858); experiment: nick-sealing DNA ligase assay (gel electrophoresis), DNA ligase I; type: biochemical; settings: ATP 10 μM, DNA substrate 50 nM, human DNA ligase I 0.5 nM; for IC50: read-out: IC50 against human DNA ligase I (converted)
Sequence of human DNA ligase I (P18858 whole entry): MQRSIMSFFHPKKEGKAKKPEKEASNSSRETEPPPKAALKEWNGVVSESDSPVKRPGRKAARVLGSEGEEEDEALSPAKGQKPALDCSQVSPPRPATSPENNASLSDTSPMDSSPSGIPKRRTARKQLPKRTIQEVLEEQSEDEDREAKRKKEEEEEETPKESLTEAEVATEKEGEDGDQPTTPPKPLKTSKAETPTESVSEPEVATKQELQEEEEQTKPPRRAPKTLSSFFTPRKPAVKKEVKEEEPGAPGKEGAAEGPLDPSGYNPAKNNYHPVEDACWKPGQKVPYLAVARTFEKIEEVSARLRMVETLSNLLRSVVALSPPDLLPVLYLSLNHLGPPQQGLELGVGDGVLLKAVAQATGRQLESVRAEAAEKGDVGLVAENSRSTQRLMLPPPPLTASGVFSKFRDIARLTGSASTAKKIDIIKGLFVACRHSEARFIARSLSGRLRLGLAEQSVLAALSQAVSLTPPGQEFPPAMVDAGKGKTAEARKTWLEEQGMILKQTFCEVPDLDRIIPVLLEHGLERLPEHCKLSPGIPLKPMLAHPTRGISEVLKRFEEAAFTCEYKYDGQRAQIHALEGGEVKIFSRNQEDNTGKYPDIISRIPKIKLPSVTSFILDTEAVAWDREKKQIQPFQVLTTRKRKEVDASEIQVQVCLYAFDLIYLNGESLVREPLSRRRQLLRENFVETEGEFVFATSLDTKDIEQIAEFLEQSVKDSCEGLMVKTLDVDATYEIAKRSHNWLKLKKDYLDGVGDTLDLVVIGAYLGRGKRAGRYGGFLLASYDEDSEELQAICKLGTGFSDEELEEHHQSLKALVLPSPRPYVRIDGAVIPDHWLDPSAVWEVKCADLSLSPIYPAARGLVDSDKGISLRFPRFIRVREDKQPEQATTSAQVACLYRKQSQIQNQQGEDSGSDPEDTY
Method: In this study, a standard nick-sealing assay was used to identify potential human DNA ligase inhibitors from representative flavonoids. […] Selected flavonoids with the resorcinol moiety in their A rings were tested as potential DNA ligase inhibitors. Epigallocatechin gallate (EGCG) is also a flavonoid found in plants, herbs, fruits, and green tea. Rutin is a flavonoid glycoside combining the flavonol quercetin and the disaccharide rutinose found in a wide variety of plants, including citrus. Quercetin is a plant flavonoid found in many fruits, vegetables, and other foods.
Figure 3 The effects of selected flavonoids on human DNA ligase I activity. DNA ligase assays were performed in reaction mixtures in the presence of ATP (10 μM), DNA substrate (50 nM), and human DNA ligase I (0.5 nM) as previously described.
Figure 4 The effects of cyaniding and rosinidin on human DNA ligase I activity. DNA ligase assays were performed in reaction mixtures in the presence of ATP (10 μM), DNA substrate (50 nM), and human DNA ligase I (0.5 nM) as previously described.
(§1) A 39 base pair nicked duplex was constructed and used as a substrate for the ligase reaction. In brief, the first 19 base pair oligonucleotide (5′-CGTAAAACGACGGCCAGTG-3′) and the second 20 base pair oligonucleotide (5′-[…]-3′) labeled with radioactive ^32P were annealed to the complementary 39 base pair oligonucleotide (5′-[…]-3′) to construct a 39 base pair nicked duplex as previously described. The resulting nicked duplex DNA was purified via 8% nondenaturing polyacrylamide gel electrophoresis.
(§2) DNA ligase I activity was routinely assayed according to a modified procedure described previously by determining the ligation of two oligonucleotides, which are hybridized to a complementary 39-mer oligonucleotide. Ligation of 5′-[^32P] end-labeled 20-mer oligonucleotide to the unlabeled 19-mer oligonucleotide was analyzed via polyacrylamide gel electrophoresis in the presence of 8 M urea. The assays were performed at least twice, and representative data are shown in this paper.

[2] = biological target: T1, human DNA ligase III (Homo sapiens, UniProt P49916); experiment: nick-sealing DNA ligase assay, DNA ligase III; type: biochemical; settings: ATP 10 μM, DNA substrate 50 nM; read-out: IC50 against human DNA ligase III (converted)
T1 sequence (P49916 43-1009): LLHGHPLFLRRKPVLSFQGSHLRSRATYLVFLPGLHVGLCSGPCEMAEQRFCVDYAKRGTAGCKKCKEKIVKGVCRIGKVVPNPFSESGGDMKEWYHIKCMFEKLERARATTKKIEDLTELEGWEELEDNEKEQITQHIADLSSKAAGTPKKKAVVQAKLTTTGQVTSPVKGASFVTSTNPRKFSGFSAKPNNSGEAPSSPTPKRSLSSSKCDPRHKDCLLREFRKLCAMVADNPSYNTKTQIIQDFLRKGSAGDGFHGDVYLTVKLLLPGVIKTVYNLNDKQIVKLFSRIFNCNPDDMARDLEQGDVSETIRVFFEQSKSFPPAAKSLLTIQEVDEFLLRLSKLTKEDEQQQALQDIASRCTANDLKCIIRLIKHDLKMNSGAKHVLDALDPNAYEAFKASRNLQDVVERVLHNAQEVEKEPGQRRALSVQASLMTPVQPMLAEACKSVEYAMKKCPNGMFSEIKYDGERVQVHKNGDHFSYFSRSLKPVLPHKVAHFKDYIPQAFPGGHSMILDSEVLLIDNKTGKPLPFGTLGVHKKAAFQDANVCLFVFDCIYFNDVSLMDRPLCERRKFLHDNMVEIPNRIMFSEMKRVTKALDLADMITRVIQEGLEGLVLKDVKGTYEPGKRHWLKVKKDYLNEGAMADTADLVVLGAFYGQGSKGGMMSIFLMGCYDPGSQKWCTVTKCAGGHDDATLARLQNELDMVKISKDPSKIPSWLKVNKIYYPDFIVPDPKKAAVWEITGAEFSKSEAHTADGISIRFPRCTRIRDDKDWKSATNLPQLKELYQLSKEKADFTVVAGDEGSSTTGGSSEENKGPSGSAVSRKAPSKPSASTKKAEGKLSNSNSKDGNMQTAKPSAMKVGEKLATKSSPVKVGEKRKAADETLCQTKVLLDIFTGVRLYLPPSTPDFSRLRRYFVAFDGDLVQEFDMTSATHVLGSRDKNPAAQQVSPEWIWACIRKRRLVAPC
Method: (§3) To validate the results from the molecular modeling studies, we also tested the effects of rutin on human DNA ligase III and IV activity.
(§4) Figure 6 The effects of rutin on human DNA ligases III and IV activities. DNA ligase assays were performed in reaction mixtures in the presence of ATP (10 μM), DNA substrate (50 nM), and human DNA ligase I (0.5 nM) as previously described.
as §1, §2

[3] = system: γH2AX protein; experiment: γH2AX protein level in Caco-2 cells (Western blot); type: cell-based, human; settings: 48 h, versus solvent control
Text: (§5) Some flavonoids are known to be cytotoxic to different types of human cancer cell lines. […] Phase contrast views reveal that rutin-treated cells are relatively thin and shrunken, consistent with the reduced cellular densities commonly observed in cultures exposed to cytotoxic agents (Figure 7A). […] The γH2AX is a sensitive and selective marker for DSBs, as phosphorylation of H2AX (γH2AX) is increased at such breakage sites. […] Phase contrast micrographs of Caco-2 cells treated with various concentrations of rutin for 48 h. Photographs taken at 10× magnification: (A) increased expressions of γH2AX protein in Caco-2 cells incubated with rutin for 48 h, compared with corresponding solvent control group, as measured via Western blot (B).

[4] = biological target: T2, human DNA ligase IV (Homo sapiens, UniProt P49917); experiment: nick-sealing DNA ligase assay, DNA ligase IV; type: biochemical; settings: ATP 10 μM, DNA substrate 50 nM; read-out: IC50 against human DNA ligase IV (converted)
T2 sequence (P49917 1-911): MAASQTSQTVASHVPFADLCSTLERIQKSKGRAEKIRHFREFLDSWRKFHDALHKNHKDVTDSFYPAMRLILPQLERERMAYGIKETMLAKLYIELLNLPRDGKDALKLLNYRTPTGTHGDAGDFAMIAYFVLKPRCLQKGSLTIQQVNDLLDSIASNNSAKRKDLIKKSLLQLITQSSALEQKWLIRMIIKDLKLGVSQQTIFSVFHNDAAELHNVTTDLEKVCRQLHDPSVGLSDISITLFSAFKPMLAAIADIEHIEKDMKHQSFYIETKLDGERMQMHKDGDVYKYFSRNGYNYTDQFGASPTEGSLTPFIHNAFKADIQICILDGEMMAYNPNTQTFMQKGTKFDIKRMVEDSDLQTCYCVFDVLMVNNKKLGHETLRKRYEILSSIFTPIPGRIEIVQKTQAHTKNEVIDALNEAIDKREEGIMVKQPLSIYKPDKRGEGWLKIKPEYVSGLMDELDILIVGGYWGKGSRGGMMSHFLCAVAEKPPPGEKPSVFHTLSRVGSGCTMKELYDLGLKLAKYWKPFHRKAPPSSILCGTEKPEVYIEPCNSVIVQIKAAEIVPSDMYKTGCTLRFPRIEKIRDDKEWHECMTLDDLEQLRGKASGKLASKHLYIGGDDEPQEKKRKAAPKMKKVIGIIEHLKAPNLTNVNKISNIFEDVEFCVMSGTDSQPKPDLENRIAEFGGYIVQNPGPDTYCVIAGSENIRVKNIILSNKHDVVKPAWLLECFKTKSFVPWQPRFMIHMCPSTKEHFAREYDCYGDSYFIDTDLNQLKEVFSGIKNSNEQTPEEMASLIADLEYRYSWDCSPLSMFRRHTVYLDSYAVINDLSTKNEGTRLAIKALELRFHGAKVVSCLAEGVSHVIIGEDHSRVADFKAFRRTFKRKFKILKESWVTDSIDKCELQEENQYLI
Method: as §3, §4, §1, §2

[5] = system: Caco-2 cells; experiment: Caco-2 cell growth and morphology (phase contrast microscopy); type: cell-based, human
Text: as §5, with “(B). The human intestinal Caco-2 cells were grown at 37 °C and 5% CO2 in a humidified atmosphere, and treated and untreated control cells were examined using an inverted phase-contrast microscope (Fisher Scientific Inverted Phase Contrast Microscope EQ-006, Pittsburgh, PA, USA) to assess cell shape and morphology.” for “(B).”

Structure (SMILES): Oc1cc(O)c2cc(O)c(-c3ccc(O)c(O)c3)[o+]c2c1 [cyanidin]
- IC50 [1]: ~3.48 µM

Structure (SMILES): Oc1cc(O)c2c(c1)O[C@H](c1cc(O)c(O)c(O)c1)[C@H](O)C2 [epigallocatechin]
- IC50 [1]: 1.63 µM

Structure (SMILES): O=c1c(O)c(-c2ccc(O)c(O)c2)oc2cc(O)cc(O)c12 [quercetin]
- IC50 [1]: 1.65 µM

Structure (SMILES): COc1cc(O)c2cc(O)c(-c3ccc(O)c(OC)c3)[o+]c2c1 [rosinidin]
- activity against human DNA ligase I [1]: little activity

Structure (SMILES): C[C@@H]1O[C@@H](OC[C@H]2O[C@@H](Oc3c(-c4ccc(O)c(O)c4)oc4cc(O)cc(O)c4c3=O)[C@H](O)[C@@H](O)[C@@H]2O)[C@H](O)[C@H](O)[C@H]1O [rutin]
- IC50 [2]: 0.819 µM
- levels of γH2AX protein [3]: increases levels of γH2AX protein in a dose-dependent manner
- IC50 [4]: 1.64 µM
- IC50 [1]: 4.91 µM
- effect on cell growth ([5]; Caco-2 cells, 48 h, concentrations lower than IC50): inhibitory effect on cell growth
- IC50 ([5]; Homo sapiens, Caco-2): 25 µg/mL (≈ 40.9 µM)
